According to publication PMC10914731, “Homo-BacPROTAC-induced degradation of ClpC1 as a strategy against drug-resistant mycobacteria” (Nature Communications, 2024):
In brackets after ≈: the same amount, converted by molar mass. Several values for one entry are separate records, joined by “and”; a condition that tells them apart may be missing. Equal entries are not always repeated. Where two headings read alike, the source gives them in different places.

Columns and labels:
[1] = molecular target: ClpC1 NTD protein (M. tuberculosis) (Mycobacterium tuberculosis, UniProt P9WPC9); test: biochemical; format: binding; conditions: SPR
[2] = format: in vitro ADME, Rat
Procedure, shortened: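 Metabolic depletion in liver microsomes (0.5 mg/ml, 1 mM NADPH, 37 °C) starting from 1 µmol/l test compound, sampled at multiple times with acetonitrile quench. LC-MS/MS quantitation; half-life converted to %Qh.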

[3] = tested on: M. tuberculosis H37Rv (ATCC 27294); test: microbe, parasite or virus in culture; format: cell-based
Msm 607 = test: microbe, parasite or virus in culture; format: cell-based
[4] = tested on: Mtb (katG del) ATCC 35822; test: microbe, parasite or virus in culture; format: cell-based; conditions: Mycobacterium tuberculosis
Acinetobacter baumannii = test: MIC ESKAPES panel, Acinetobacter baumannii; format: cell-based
Procedure: (§1) Minimum inhibitory concentration (MIC) against ESKAPES panel of Gram positive and Gram negative pathogens (Enterococcus faecium, Staphylococcus aureus, Klebsiella pneumoniae, Acinetobacter baumannii, Pseudomonas aeruginosa, Enterobacter cloacae and Salmonella typhimurium [ESKAPES panel]) were determined at the FNDR by the standard broth dilution method [CLSI, M100]. […] Mueller Hinton broth (MHB) medium was used to grow ESKAPES panel strains. The individual cultures were added as 200 μL (inoculum of 3–7 × 10^5 cfu/ml) to the respective assay plates in each well to all columns, except the media control (200 μL of medium). […] The assay plates were incubated at 37 °C, and the results were noted on the 2nd day as turbidometric readout. The clear wells indicated inhibition of growth, while the turbid wells indicated uninhibited growth.

Salmonella typhimurium = test: MIC ESKAPES panel, Salmonella typhimurium; format: cell-based
Procedure: as §1

[5] = tested on: Mtb H37Rv in THP-1 macrophages; test: Intracellular MIC assay in THP-1 macrophages; format: cell-based, Mycobacterium tuberculosis; set-up: Emax: unit not given here
in vivo = format: in vivo, BALB/cAnNCrl mice
Procedure: The in-life experimental procedures were conducted in strict compliance with German and European animal welfare legislation in an AAALAC-accredited facility. Male BALB/cAnNCrl mice (Charles River Laboratories Research Models and Services, 97633 Sulzfeld, Germany) were used. Animals were 9 weeks old at dosing with a body weight of 21.6–24.3 g. Animals were delivered free of pathogens according to FELASA recommendations with a health certificate provided by the breeder. Upon receipt, the state of health and sex was checked. Animals acclimatized for at least 5 days before the commencement of the in-life phase. During acclimation, animals were group-housed in individually ventilated cages, on birch wood granulate bedding with species-specific enrichment (nesting material, mouse igloo, gnawing wood). During experimental conduct, animals were housed in conventional cages with elevated grid floors. Grid floor was used to avoid contamination with test item material excreted via urine and feces and subsequent reuptake during fur grooming. No bedding and enrichment were provided except a cage divider, which can be used as a shelter. Animals always had unlimited access to food and water and received a pelleted, total pathogen-free maintenance diet and tap drinking water, sterilized by filter.
On the day before dosing, test item(s) were suspended in kleptose (20% in WFI) under continuous stirring (3.0 mg/ml). Following 2 min vortexing and 1 h stirring, the formulation was sonicated at 60 °C for 30 min and stirred at ambient temperature overnight. Before dosing, the formulation was vortexed for 2 min followed by ultraturrax treatment for 2 min.
Male BALB/cAnNCrl mice (n = 3 per test item and administration route) received a bolus dose of the formulated test item(s) (1 mg/kg iv, 30 mg/kg po) at t = 0 h, and whole blood samples were collected subsequently (35 µl at 0.1 (iv) / 0.25 (po), 0.5, 1, 2, 4, 6 h; 600 µl at sacrifice after 24 h). Animals were euthanized by exsanguination in deep isoflurane anesthesia. Whole blood samples were immediately stored on ice at about 4 °C. Plasma was separated by centrifugation at approximately 10,000 × g for 5 m at +4 °C. Centrifugation of each blood sample was started within 10 m after collection. A single aliquot of at least 15 µL of plasma was prepared and immediately stored at −20 ± 5 °C.
Sample proteins were precipitated with ACN (1 + 12, v/v) containing internal standard, and supernatants analyzed by quantitative UPLC-MS/MS: Phenomenex Luna Omega C18, 2.1 × 50 mm, 1.6 µm, 40 °C, gradient between 10% - 90% ACN with 0.1% formic acid. LogD determination: Lipophilicity of the test items, expressed as chromLogD7.5, was assessed by measuring their chromatographic retention times on C18-material. The chromatographic retention versus logD7.5 values of a series of thirteen n-alkan-2-ones (2-butanone – 2-hexadecanone) served as lipophilicity calibration.

[6] = oral gavage 30 mg/kg, mice, Mean, BLOQ <1.00 nmol/L

Chain of ClpC1 NTD protein (M. tuberculosis) (P9WPC9 1-156, looked up, natural form): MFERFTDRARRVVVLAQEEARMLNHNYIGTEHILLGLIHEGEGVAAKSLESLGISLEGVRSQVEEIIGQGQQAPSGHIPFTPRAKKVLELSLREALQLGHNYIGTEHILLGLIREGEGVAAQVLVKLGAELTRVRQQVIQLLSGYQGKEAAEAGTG

**Q.** Which results are given for `COC(c1ccccc1)C1NC(=O)C(C)NC(=O)C(CC(C)CO)N(C)C(=O)C(Cc2cn(Cc3cn(CCOCCOCCOCCOCCn4cc(Cn5cc(CC6NC(=O)C(C(C)C)NC(=O)C(CC(C)C)N(C)C(=O)C(C(C)C)NC(=O)C(C(OC)c7ccccc7)NC(=O)C(C)NC(=O)C(CC(C)CO)N(C)C6=O)c6ccccc65)nn4)nn3)c3ccccc23)NC(=O)C(C(C)C)NC(=O)C(CC(C)C)N(C)C(=O)C(C(C)C)NC1=O` (centres unmarked) [Compound 8]?
**A.** Kd ([1]; individual measurements (source data), listed as 8 (UdSBI-0545), read-out: KD ClpC1-NTD): 0.325 nM and 0.439 nM and 0.567 nM and 0.381 nM; Kd ([1]; read-out: ClpC1-NTD KD Mean ± SD): 0.4 ± 0.1 nM; Microsomal Stability Rat QH ([2]; Rat): 43% and 48.3% and 40.9%; Microsomal Stability Rat ([2]; clearance in microsomes): 40 %Qh; MIC ([3]; Mycobacterium tuberculosis, M. tuberculosis H37Rv 27294, single well replicates, read-out: MIC): 0.098 µM (≈ 0.213 µg/mL); MIC ([3]; Mycobacterium tuberculosis, M. tuberculosis H37Rv strain, read-out: MIC Mtb H37Rv Mean ± SD): 0.4 ± 0.4 µM (≈ 0.868 µg/mL); MIC ([3]; Mycobacterium tuberculosis, Mtb H37Rv (Supplementary Table 2), read-out: MIC Mtb): 0.4 ± 0.4 µM (≈ 0.868 µg/mL); MIC ([3]; Mycobacterium tuberculosis, Mtb H37Rv, mean ± SD, n = 3 well replicates, read-out: MIC): 0.2 ± 0.1 µM (≈ 0.434 µg/mL); MIC ([3]; Mycobacterium tuberculosis, Set 1, read-out: MIC (Mtb H37Rv) Set 1): 0.1 µM and 0.21 µg/mL; MIC ([3]; Mycobacterium tuberculosis, Set 2, read-out: MIC (Mtb H37Rv) Set 2): 0.05 µM and 0.1 µg/mL; MIC ([3]; Mycobacterium tuberculosis, Set 3, done at a different day than Set 1 and Set 2, read-out: MIC (Mtb H37Rv) Set 3): 0.1 µM and 0.21 µg/mL; MIC ([3]; Mycobacterium tuberculosis, individual example (Supplementary Table 11), read-out: MIC Mtb H37Rv): 0.1 µM and 0.2 µg/mL; MIC ([3]; Mycobacterium tuberculosis, mean of 3 experiments +/- SD, unit taken from the sets above in the same table, read-out: MIC data (Mtb H37Rv) (+/- SD)): 0.08 µM and 0.17 µg/mL; MIC ([3]; individual measurements (source data), listed as 8 (UdSBI-0545), read-out: Mtb MIC): 0.780 µM (2×) and 0.097 µM (2×); MIC (Msm 607; Mycolicibacterium smegmatis, 607, read-out: MIC Msm 607): 1.9 ± 0.9 µM (≈ 4.12 µg/mL); MIC (Msm 607; Mycolicibacterium smegmatis, 607, read-out: MIC Msm #607, individual example (Supplementary Table 11)): 1.6 µM and 3.4 µg/mL; MIC (Msm 607; Mycolicibacterium smegmatis, ATCC607, Set-1, read-out: MIC (Msm ATCC607) Set-1): 3.12 µM and 6.78 µg/mL; MIC (Msm 607; Mycolicibacterium smegmatis, ATCC607, Set-2, read-out: MIC (Msm ATCC607) Set-2): 1.56 µM and 3.39 µg/mL; MIC (Msm 607; Mycolicibacterium smegmatis, ATCC607, Set-3, done at a different day than Set 1 and Set 2, read-out: MIC (Msm ATCC607) Set-3): 1.56 µM and 3.39 µg/mL; MIC (Msm 607; Mycolicibacterium smegmatis, ATCC607, mean of 3 experiments ± SD, read-out: MIC including standard deviations (Msm ATCC607)): 2.08 µM and 4.5 µg/mL; MIC ([4]; ATCC35822, M. tuberculosis ATCC 35822, single well replicates): 0.195 µM (≈ 0.423 µg/mL); MIC ([4]; ATCC35822, Mtb (katG del) ATCC 35822, mean ± SD, n = 3 well replicates): 0.2 µM (≈ 0.434 µg/mL); MIC (Acinetobacter baumannii; Gram negative, n = 3 well replicates, read-out: MIC Acinetobacter baumanii): > 50 µM; MIC (Acinetobacter baumannii; Gram-Negative Bacteria, replicates 1-3, read-out: MIC Acinetobacter baumannii): > 50 µM and > 109 µg/mL; MIC (Salmonella typhimurium; Gram-Negative Bacteria, replicates 1-3, listed as 8 (UdSBI-0545)): >50 µM; MIC (Salmonella typhimurium; Salmonella enterica, TYPHIMURIUM, Gram negative, n = 3 well replicates): > 50 µM; MIC (Salmonella typhimurium; Salmonella enterica, TYPHIMURIUM, Gram-Negative Bacteria, replicates 1-3): > 109 µg/mL; Emax [5]: 1.27; intracellular viable mycobacteria ([5]; 0.19µM, Day 4, well replicates): 5.45 log10 cfu/ml; intracellular viable mycobacteria ([5]; 0.19µM, Day 7, well replicates): 5.56 log10 cfu/ml; intracellular viable mycobacteria ([5]; 0.781µM, Day 4, well replicates): 4.88 log10 cfu/ml; intracellular viable mycobacteria ([5]; 0.781µM, Day 7, well replicates): 4.81 log10 cfu/ml; intracellular viable mycobacteria ([5]; 3.125µM, Day 4, well replicates): 4.56 log10 cfu/ml; intracellular viable mycobacteria ([5]; 3.125µM, Day 7, well replicates): 4.31 log10 cfu/ml and 4.3 log10 cfu/ml; intracellular viable mycobacteria ([5]; 50µM, Day 4, well replicates): 4.3 log10 cfu/ml; intracellular viable mycobacteria ([5]; 50µM, Day 7, well replicates): 3.92 log10 cfu/ml and 3.9 log10 cfu/ml; Plasma concentration 0.5 h (in vivo; [6]): 19.4 nM; Plasma concentration 1 h (in vivo; [6]): 18.1 nM; Plasma concentration 2 h (in vivo; [6]): 26.0 nM; Plasma concentration 4 h (in vivo; [6]): 31.8 nM; Plasma concentration 6 h (in vivo; [6]): 32.5 nM; Plasma concentration 24 h (in vivo; [6]): 96.7 nM; Plasma concentration […] (in vivo; [6]): 25.7 nM; Plasma concentration 24 h (in vivo; oral gavage, individual animals 1-3, BLOQ <1.00 nmol/L, listed as 8 (UdSBI-0545)): 101 nM and 92.4 nM; Cmax/Dose (in vivo; oral gavage, mice, Mean): 10.4 nM/nmol/kg; tmax (in vivo; oral gavage, mice, Mean): 24.0 h; AUC0-t/Dose (in vivo; oral gavage, mice, Mean (compound 6: maximum potential value with 1 nM for each time point)): 165 h*nM/nmol/kg
